Molecular target: T1, human PAH with the R408W mutation (A375 R408W cells) (Homo sapiens, UniProt P00439, R408W)
T1 construct: expressed in transfected cells
T1 sequence (P00439 1-452 R408W): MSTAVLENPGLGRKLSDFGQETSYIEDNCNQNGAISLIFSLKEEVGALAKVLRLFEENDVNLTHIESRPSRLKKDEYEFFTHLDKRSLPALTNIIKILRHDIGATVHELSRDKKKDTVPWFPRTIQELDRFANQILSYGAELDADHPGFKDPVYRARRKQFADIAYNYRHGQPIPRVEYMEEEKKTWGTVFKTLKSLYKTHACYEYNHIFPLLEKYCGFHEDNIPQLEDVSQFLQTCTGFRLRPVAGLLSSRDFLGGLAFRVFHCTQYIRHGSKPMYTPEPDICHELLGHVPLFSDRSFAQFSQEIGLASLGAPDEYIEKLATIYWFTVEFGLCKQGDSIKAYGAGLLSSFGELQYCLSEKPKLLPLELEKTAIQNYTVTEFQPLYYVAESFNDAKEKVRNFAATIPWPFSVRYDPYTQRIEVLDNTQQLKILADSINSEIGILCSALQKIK
Test: Cell Based Phenylalanine Flux Assay
Details: 24 hrs with compound, then 20 μM sepiapterin and 800 μM 13C9,15N-Phenylalanine for 4 hours, 13C-Tyrosine by LC-MS, average where tested multiple times
Procedure, shortened: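 LC-MS quantitation of 13C-tyrosine in media gave AC50 values. Stable A375 R408W PAH cells were preincubated 24 h with compound, then fed 800 μM labelled Phe plus 20 μM sepiapterin for 4 h. Dose curves were 10-point, tested in duplicate, averaged over repeat runs.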

[1] = A375 cells expressing R408W PAH

Row | Compound | AC50 (A375 R408W cells) [nM] | AC50 [1] [nM]
1 | O=C(c1ocnc1C(F)F)N1CCc2[nH]cnc2[C@@H]1c1nc2ccc(F)cc2o1 [Example 164, (R)-(4-(difluoromethyl)oxazol-5-yl)(4-(6-fluorobenzo[d]oxazol-2-yl)-6,7-dihydro-1H-imidazo[4,5-c]pyridin-5(4H)-yl)methanone] | 1000 to 5000 | –
2 | CC(C)(O)c1nc(C(F)F)c(C(=O)N2CCc3[nH]cnc3[C@@H]2c2nc3c(F)ccc(F)c3o2)o1 [Example 346, (R)-(4-(4,7-difluorobenzo[d]oxazol-2-yl)-6,7-dihydro-1H-imidazo[4,5-c]pyridin-5(4H)-yl)(4-(difluoromethyl)-2-(2-hydroxypropan-2-yl)oxazol-5-yl)methanone] | 1000 to 5000 | –
3 | O=C(c1ocnc1C(F)F)N1CCc2[nH]cnc2[C@H]1c1nc2cc(C(F)(F)F)ccc2o1 [Example 329, (S)-(4-(difluoromethyl)oxazol-5-yl)(4-(5-(trifluoromethyl)benzo[d]oxazol-2-yl)-6,7-dihydro-1H-imidazo[4,5-c]pyridin-5(4H)-yl)methanone] | ≤ 500 | –
4 | O=C(c1ocnc1C(F)F)N1CCc2[nH]cnc2[C@H]1c1nc2cc(F)c(F)cc2o1 [Example 295, (S)-(4-(5,6-difluorobenzo[d]oxazol-2-yl)-6,7-dihydro-1H-imidazo[4,5-c]pyridin-5(4H)-yl)(4-(difluoromethyl)oxazol-5-yl)methanone] | 500 to 1000 | –
5 | Cc1cccc2nc([C@@H]3c4nc[nH]c4CCN3C(=O)c3ccnn3C(F)F)oc12 [Example 919, (S)-(1-(difluoromethyl)-1H-pyrazol-5-yl)(4-(7-methylbenzo[d]oxazol-2-yl)-6,7-dihydro-1H-imidazo[4,5-c]pyridin-5(4H)-yl)methanone] | ≤ 500 | –
6 | O=C(c1cnn2cc(N3CCN(C4CC4)CC3)ccc12)N1CCc2[nH]cnc2[C@@H]1c1nc2cc(F)ccc2o1 [Example 134, (R)-(6-(4-cyclopropylpiperazin-1-yl)pyrazolo[1,5-a]pyridin-3-yl)(4-(5-fluorobenzo[d]oxazol-2-yl)-6,7-dihydro-1H-imidazo[4,5-c]pyridin-5(4H)-yl)methanone] | ≥ 5000 | –
7 | CC(C)(O)c1nc(C(F)F)c(C(=O)N2CC3(CC3)c3[nH]cnc3C2c2nc3cc(F)ccc3o2)o1 (stereo not drawn) | – | 1000 to 5000
8 | O=C(c1ocnc1C(F)(F)F)N1CCc2[nH]cnc2[C@H]1c1nc2ccc(F)cc2o1 [Example 161, (S)-(4-(6-fluorobenzo[d]oxazol-2-yl)-6,7-dihydro-1H-imidazo[4,5-c]pyridin-5(4H)-yl)(4-(trifluoromethyl)oxazol-5-yl)methanone] | ≤ 500 | –
9 | COCc1ccc2c(C(=O)N3CCc4[nH]cnc4[C@H]3c3nc4c(F)cccc4o3)cnn2c1 [Example 275, (S)-(4-(4-fluorobenzo[d]oxazol-2-yl)-6,7-dihydro-1H-imidazo[4,5-c]pyridin-5(4H)-yl)(6-(methoxymethyl)pyrazolo[1,5-a]pyridin-3-yl)methanone] | 500 to 1000 | –
10 | Cc1cccc2nc(C3c4nc[nH]c4CCN3C(=O)c3cnc(C(C)(C)O)o3)oc12 (stereo not drawn) | – | 1000 to 5000
11 | O=C(c1nnc(C2CC(F)(F)C2)o1)N1CCc2[nH]cnc2C1c1nc2cc(F)ccc2o1 (stereo not drawn) | – | 1000 to 5000
12 | O=C(c1nnc(-c2ncccc2F)o1)N1CCc2[nH]cnc2[C@@H]1c1nc2cccc(F)c2o1 [Example 867, (R)-(4-(7-fluorobenzo[d]oxazol-2-yl)-6,7-dihydro-1H-imidazo[4,5-c]pyridin-5(4H)-yl)(5-(3-fluoropyridin-2-yl)-1,3,4-oxadiazol-2-yl)methanone] | 500 to 1000 | –
13 | Cc1ccc(-c2nnc(C(=O)N3CCc4[nH]cnc4[C@H]3c3nc4cc(F)ccc4o3)o2)nc1 [Example 126, (S)-(4-(5-fluorobenzo[d]oxazol-2-yl)-6,7-dihydro-1H-imidazo[4,5-c]pyridin-5(4H)-yl)(5-(5-methylpyridin-2-yl)-1,3,4-oxadiazol-2-yl)methanone] | 500 to 1000 | –
14 | CC(C)(O)c1cc(C(=O)N2CCc3[nH]cnc3C2c2nc3cccc(F)c3o2)on1 (stereo not drawn) | – | 1000 to 5000
15 | Cc1nc(C(C)(C)O)oc1C(=O)N1CCc2[nH]cnc2C1c1nc2cc(F)ccc2o1 (stereo not drawn) | – | 1000 to 5000

— patent US20250171437A1 (Agios Pharmaceuticals,Inc., priority 2022, published 2025)
